Reference: the NIST ThermoML archive (doi:10.1021/je800783a)

Test: xn = mol fraction of the nth substance listed
Conditions: 101 kPa, Liquid, Vibrating tube method

CCCn1cc[n+](C)c1.N[C@@H](CCC(=O)O)C(=O)[O-] + O
mass density [kg/m3]
Conditions	283.15 K	288.15 K	293.15 K	298.15 K	303.15 K	308.15 K
x1 = 0.039	1090.4	1088.42	1086.11	1083.72	1081.22	1078.64
x1 = 0.0455	1100.76	1098.39	1095.92	1093.38	1090.77	1088.06
x1 = 0.0497	1106.9	1104.45	1101.92	1099.3	1096.64	1093.89
x1 = 0.0683	1129.12	1126.36	1123.56	1120.71	1117.81	1114.86
x1 = 0.0783	1139.04	1136.21	1133.31	1130.35	1127.36	1124.33
x1 = 0.0894	1147.7	1144.79	1141.8	1138.78	1135.72	1132.63
x1 = 0.0975	1153.37	1150.37	1147.34	1144.3	1141.18	1138.07
x1 = 0.1235	1169.78	1166.6	1163.35	1160.15	1156.96	1153.81
x1 = 0.1451	1178.22	1175.07	1172.01	1168.85	1165.64	1162.49
x1 = 0.1925	1191.85	1188.67	1185.47	1182.21	1178.9	1175.73
x1 = 0.239	1201.76	1198.15	1194.83	1191.61	1188.36	1185.05
x1 = 0.2888	1208.1	1204.86	1201.46	1197.83	1194.59	1191.36
x1 = 0.3294	1211.85	1208.49	1205.08	1201.85	1198.55	1195.3
x1 = 0.3767	1215	1211.68	1208.49	1205.25	1201.91	1198.71
x1 = 0.4265	1218.6	1214.72	1211.93	1209.67	1206.45	1203.15
x1 = 0.4713	1220.69	1217.33	1213.9	1210.64	1207.32	1203.95
x1 = 0.5112	1221.72	1218.47	1215.18	1211.78	1208.42	1205.15
x1 = 0.5427	1223.07	1220.26	1216.93	1213.92	1210.64	1207.34
